We go through 65 compounds from PubChem BioAssay AID485340 (Southern Research Specialized Biocontainment Screening …, 2010).

Calls of active or inactive are those of the source. How the calls were made is not given here. A value given as a limit tells only on which side of the number the result lay.

In this assay the test system is M. tuberculosis growth, meropenem IC50 shift with compound. Description: confirmation, meropenem IC50 shift (AID 485340).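 Further: growth read after one week of culture plus overnight Alamar Blue.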
Where [1] appears, read: compound alone IC50 vs Mtb, compound dose (near its own IC50) 2.35 µM.
[2] abbreviates: compound dose (near its own IC50) 2.35 µM.
[3] abbreviates: compound alone IC50 vs Mtb, compound dose (near its own IC50) 4.69 µM.
Setting [4] is: compound dose (near its own IC50) 4.69 µM.
Where [5] appears, read: compound alone IC50 vs Mtb, compound dose (near its own IC50) 0.15 µM.
[6] abbreviates: compound dose (near its own IC50) 0.15 µM.
Where [7] appears, read: compound alone IC50 vs Mtb, compound dose (near its own IC50) 1.18 µM.
Where [8] appears, read: compound dose (near its own IC50) 1.18 µM.
The mark [9] stands for this setting: compound alone IC50 vs Mtb, compound dose (near its own IC50) 0.59 µM.
The mark [10] stands for this setting: compound dose (near its own IC50) 0.59 µM.
[11] abbreviates: compound alone IC50 vs Mtb, compound dose (near its own IC50) 9.38 µM.
The mark [12] stands for this setting: compound dose (near its own IC50) 9.38 µM.

For the compound `COc1cc(C(=O)Oc2ccccc2/C=N/NC(=O)c2ccc(C)c(Cl)c2)cc(OC)c1OC`, the 50% inhibitory concentration (IC50) runs as follows: under setting [1], 1.96 µM; under setting [2], 4.26 µM (inactive).
Turning to `COc1ccc2oc(C(=O)Nc3nc4ccccc4[nH]3)c(C)c2c1`, the concentration for half-maximal inhibition (IC50) was 1.7 µM under setting [1] and 3.58 µM (inactive) under setting [2].
With `Nc1c2c(nc3sc4c(c13)CCCC4)-c1ccccc1CC2`, the concentration for half-maximal inhibition (IC50) was 6.11 µM under setting [3] and 6.03 µM (inactive) under setting [4].
Consider `O=C(Nc1ccccc1)Nc1csc2ccccc12`, for which the concentration for half-maximal inhibition (IC50) was 0.2 µM under setting [5] and 4.85 µM (inactive) under setting [6].
Regarding `Cc1cc(C)cc(NC(=O)c2cc(Cl)sc2Cl)c1`, the IC50 by setting is: under setting [3], 4.84 µM; under setting [4], 1.88 µM (inactive).
Turning to `O=C(OC(C(=O)Nc1ccc(Cl)cc1C(F)(F)F)c1ccccc1)C1=COCCO1` (stereo not given), the IC50 under setting [7] came to 1.23 µM and the IC50 under setting [8] is 7.47 µM (inactive).
For the compound `COc1ccc(-c2cc(C(N)=O)nc(N3CCCCCC3)n2)cc1`, the half-inhibitory concentration (IC50) under setting [3] was determined as 3.95 µM and the IC50 under setting [4] is 4.05 µM (inactive).
`N/C(=N\c1nc2ccccc2o1)NC(=O)c1ccccc1Br`: the IC50 under setting [5] amounted to 0.2 µM and the IC50 under setting [6] was 7.58 µM (inactive).
`Cc1ccccc1OCC(=O)Nc1ccccc1N1CCCCC1`: the IC50 runs as follows: under setting [3], 5.94 µM; under setting [4], 6.96 µM (inactive).
Consider `CCC(C(=O)NC1C(=O)N2C(C(=O)O)=C(CSc3nnc(C)s3)CSC12)c1ccccc1` (stereo not given), for which the concentration for half-maximal inhibition (IC50) under setting [9] was 0.587 µM and the IC50 under setting [10] was 1.99 µM (inactive).
On to `O=C(NN=C(Cc1ccccc1)Cc1ccccc1)c1ccccc1F`, for which the 50% inhibitory concentration (IC50) runs as follows: under setting [7], 1.64 µM; under setting [8], 4.28 µM (inactive).
In the case of `Cc1ccc(-c2nc3[nH]c(=O)cc(NC(=O)C(C)C)n3n2)cc1`, the IC50 by setting is: under setting [11], 7.36 µM; under setting [12], 3.83 µM (inactive).
For the compound `Cc1cc(/C=N/NC(=O)CC#N)c(C)n1-c1ccc([N+](=O)[O-])cc1`, the IC50 reads like this: under setting [11], 10.2 µM; under setting [12], 4.08 µM (inactive).
On to `CN(C)c1ccc(/C=C/c2nc3ccccc3s2)cc1`, for which the half-maximal inhibitory concentration (IC50) runs as follows: under setting [11], 8.97 µM; under setting [12], 3.55 µM (inactive).
Regarding `C[C@H](NC(=O)c1[nH]cnc1C(=O)Nc1cccc(Cl)c1)c1ccccc1`, the half-inhibitory concentration (IC50) is 3.59 µM under setting [3] and less than 0.52 µM under setting [4].
For `CC(C)(C)c1ccc(C(=O)Oc2ccc3c(c2)OCC3=O)cc1`, the concentration for half-maximal inhibition (IC50) reads like this: under setting [11], 8.64 µM; under setting [12], 4.92 µM (inactive).
In the case of `CCNC(=S)N/N=C1\C(=O)c2cccc3cccc1c23`, the half-inhibitory concentration (IC50) under setting [3] was found to be 5.46 µM and the IC50 under setting [4] was 4.97 µM (inactive).
`Cc1ccc(Cn2c(NC(=O)c3ccco3)nc3ccccc32)cc1`: the IC50 is, setting by setting: under setting [1], 2.62 µM; under setting [2], 4.24 µM (inactive).
Regarding `COc1ccc(Cl)cc1NC(=O)C/C(C)=N/NC(=O)CC#N`, the concentration for half-maximal inhibition (IC50) under setting [11] came out at 7.99 µM and the IC50 under setting [12] is 2.83 µM (inactive).
On to `CCOc1cc(/C=N\Nc2ccc([N+](=O)[O-])cc2)ccc1OCC(=O)Nc1ccc(C)c(C)c1`, for which the IC50 under setting [3] amounted to 5.99 µM and the IC50 under setting [4] is 4.01 µM (inactive).
Regarding `COc1cccc(/C=N/NC(=O)CSCC(=O)Nc2ccccc2)c1O`, the half-inhibitory concentration (IC50) was 5.41 µM under setting [3] and 3.28 µM (inactive) under setting [4].
With `c1ccc(-n2c3ccccc3c3ccccc32)cc1`, the IC50 is, setting by setting: under setting [1], 3.27 µM; under setting [2], 7.17 µM (inactive).
Take `Cc1ccc(CC(=O)Nc2nc3ccccc3[nH]2)cc1C`: the IC50 is 6.31 µM under setting [3] and 4.04 µM (inactive) under setting [4].
On to `CCOC(=O)COc1nc(-c2ccc(Cl)cc2)cc(-c2ccco2)c1C#N`, for which the 50% inhibitory concentration (IC50) was 3.82 µM under setting [3] and 7.14 µM (inactive) under setting [4].
In the case of `Cc1nn(-c2ccccc2)cc1/C=N/NC(N)=S`, the IC50 is 3.7 µM under setting [3] and 2.68 µM (inactive) under setting [4].
For the compound `COc1cccc(NC(=S)Nc2cc(C)cc(C)n2)c1`, the 50% inhibitory concentration (IC50) was 6.41 µM under setting [3] and 4.07 µM (inactive) under setting [4].
As for `CCOc1ccc2c(c1)c(C(C)=O)c(C)n2-c1ccccc1`, the half-maximal inhibitory concentration (IC50) under setting [5] came to 0.2 µM and the IC50 under setting [6] is 3.86 µM (inactive).
As to `CC1=Nc2ccccc2/C1=C\c1nc(-c2ccc(F)cc2)oc1O`, the IC50 is, setting by setting: under setting [3], 3.73 µM; under setting [4], 4.02 µM (inactive).
For the compound `O=C(CCN1c2ccccc2Sc2ccccc21)Oc1ccccc1`, the 50% inhibitory concentration (IC50) was 8.48 µM under setting [11] and 2.05 µM (inactive) under setting [12].
As for `C/C(=N\NC(=O)c1cc(Br)ccc1O)c1ccccn1`, the IC50 reads like this: under setting [3], 3.88 µM; under setting [4], 1.73 µM (inactive).
For the compound `CC(=O)Nc1cccc(/C(C)=N/NC(N)=S)c1`, the half-inhibitory concentration (IC50) is, setting by setting: under setting [11], 7.9 µM; under setting [12], 2.08 µM (inactive).
Regarding `O=C(CCS(=O)(=O)c1ccc(F)cc1)Nc1nnc(-c2cccs2)o1`, the IC50 reads like this: under setting [1], 2.94 µM; under setting [2], 5.51 µM (inactive).
Regarding `Fc1ccc(-c2csc(NC(=S)Nc3ccccc3)n2)cc1`, the half-inhibitory concentration (IC50) is 7.55 µM under setting [11] and 2.74 µM (inactive) under setting [12].
With `COc1cccc(NC(=O)C2CC2)c1`, the 50% inhibitory concentration (IC50) under setting [3] is 6.09 µM and the IC50 under setting [4] is 2.07 µM (inactive).
Regarding `CSc1nc(-c2ccc(Cl)cc2)nn1S(=O)(=O)c1ccccc1`, the half-maximal inhibitory concentration (IC50) under setting [11] came out at 9.85 µM and the IC50 under setting [12] is 4.13 µM (inactive).
On to `CCc1ccc2nc(/N=C(\N)NC(=O)c3ccccc3)nc(C)c2c1`, for which the IC50 by setting is: under setting [7], 1.02 µM; under setting [8], 4.22 µM (inactive).
As for `O=c1oc(-c2ccccc2F)nc2scc(-c3ccccc3)c12`, the IC50 is 2.19 µM under setting [1] and 5.8 µM (inactive) under setting [2].
Consider `Cc1ccc(-c2[nH][nH]c(=O)c(=O)c2N=Nc2ccccc2)cc1`, for which the IC50 reads like this: under setting [3], 4.12 µM; under setting [4], 4.07 µM (inactive).
Turning to `COc1ccc(/C=C/C(=O)N(C(C)C)C(C)C)cc1Br`, the IC50 was 5.89 µM under setting [3] and 4.03 µM (inactive) under setting [4].
With `C/C(=N\NC(N)=S)c1ccc(-n2ccnc2)cc1`, the half-inhibitory concentration (IC50) under setting [11] came out at 6.58 µM and the IC50 under setting [12] was 3.97 µM (inactive).
In the case of `O=C(COC(=O)C1=COCCO1)Nc1ccc2c(c1)OCO2`, the IC50 by setting is: under setting [3], 3.86 µM; under setting [4], 4.01 µM (inactive).
Take `COc1cccc(/C=N/NC(=O)NC23CC4CC(CC(C4)C2)C3)c1O`: the IC50 runs as follows: under setting [1], 2.93 µM; under setting [2], 5.23 µM (inactive).
As for `O=C(COC(=O)C1CC1)NCc1ccccc1Cl`, the 50% inhibitory concentration (IC50) was 1.37 µM under setting [7] and 2.59 µM (inactive) under setting [8].
For `COc1cccc(C(=O)C2CCCN(Cc3ccccn3)C2)c1` (stereo not given), in that order: 1.46 µM and 7.15 µM (inactive).
On to `O=C(COc1ccc2ccccc2c1)Nc1nc2ccccc2[nH]1`, for which the 50% inhibitory concentration (IC50) runs as follows: under setting [3], 5.83 µM; under setting [4], 2.07 µM (inactive).
`O=C(CC12CC3CC(CC(C3)C1)C2)NCc1ccc(F)cc1`: the IC50 reads like this: under setting [11], 7.43 µM; under setting [12], 7.53 µM (inactive).
`COc1cc(/C(C)=N\NC(N)=S)cc(OC)c1OC`: the half-inhibitory concentration (IC50) is 10.2 µM under setting [11] and 2.82 µM (inactive) under setting [12].
For the compound `CCOc1ccc2nc(NC(=O)c3cnccn3)sc2c1`, the IC50 was 4.07 µM under setting [3] and 4.08 µM (inactive) under setting [4].
Turning to `CSc1ncnc2c1ccn2CC(=O)Nc1ccc(C)c(C)c1`, the IC50 is 8.44 µM under setting [11] and 7.31 µM (inactive) under setting [12].
For the compound `CCc1ccc(NC(=O)c2c(Cl)nc(C)c(Cl)c2C)cc1`, the IC50 is, setting by setting: under setting [11], 7.1 µM; under setting [12], 7.77 µM (inactive).
As to `Cc1ccccc1OCC(=O)Nc1ccccc1-c1ccccc1`, the IC50 is, setting by setting: under setting [3], 6.04 µM; under setting [4], 4.07 µM (inactive).
In the case of `O=C(Cc1ccccc1Cl)Nc1nc2ccccc2[nH]1`, the IC50 reads like this: under setting [11], 9.31 µM; under setting [12], less than 0.52 µM.
`c1ccc(OCc2nnc(-c3ccccc3)o2)cc1`: the IC50 is 1.4 µM under setting [7] and 7.26 µM (inactive) under setting [8].
As for `C[C@H](NC(=O)c1[nH]cnc1C(=O)Nc1ccc(Cl)cc1)C(=O)OC(C)(C)C`, the IC50 is, setting by setting: under setting [11], 10.4 µM; under setting [12], 4.93 µM (inactive).
As for `Cc1cc(C)n(-c2nc3ccccc3c(=O)n2OCC(=O)N(C)C)n1`, the 50% inhibitory concentration (IC50) is 7.74 µM under setting [11] and 4.61 µM (inactive) under setting [12].
For `CCOC(=O)c1c(C)n(-c2ccccc2)c2ccc(OCCN(C)C)cc12`, the IC50 was 5.45 µM under setting [3] and 4.08 µM (inactive) under setting [4].
On to `O=C(CCCCCN1C(=O)c2cccc([N+](=O)[O-])c2C1=O)Nc1ccccc1F`, for which the concentration for half-maximal inhibition (IC50) runs as follows: under setting [11], 10.2 µM; under setting [12], 1.08 µM (inactive).
Turning to `Cc1ccc(OCC(=O)Nc2ccc3c4c(cccc24)CC3)c(C)c1`, the half-inhibitory concentration (IC50) is 1.71 µM under setting [1] and 7.05 µM (inactive) under setting [2].
With `COc1ccc2c(c1)c(C(C)=O)c(C)n2-c1ccccc1`, the IC50 (compound alone IC50 vs Mtb, compound dose (near its own IC50) 0.3 µM) turned out to be 0.336 µM and the IC50 (compound dose (near its own IC50) 0.3 µM) was 7.65 µM (inactive).
As for `CC(C)Cn1c2c(c(O)c(C(=O)Nc3nccs3)c1=O)CCCC2`, the 50% inhibitory concentration (IC50) reads like this: under setting [1], 3.22 µM; under setting [2], 4.05 µM (inactive).
Regarding `Cc1cc(C)c(OCC(=O)Nc2nc3ccccc3[nH]2)c(C)c1`, the 50% inhibitory concentration (IC50) reads like this: under setting [7], 1.22 µM; under setting [8], 7.24 µM (inactive).
For `CCOC(=O)c1cnc2cc(-c3ccc(C(C)(C)C)cc3)nn2c1N`, in that order: 0.899 µM and 7.5 µM (inactive).
`Cn1c(/C=N/c2nc3ccccc3[nH]2)nc2ccccc21`: the half-inhibitory concentration (IC50) under setting [5] was found to be 0.2 µM and the IC50 under setting [6] is 6.15 µM (inactive).
Regarding `Cc1[nH]n(-c2ccccc2)c(=O)c1/C=N/NC(=O)c1ccoc1C`, the half-maximal inhibitory concentration (IC50) under setting [9] was 0.655 µM and the IC50 under setting [10] is 7.56 µM (inactive).
`NC(=S)N/N=C/c1ccc2ccccc2c1`: the IC50 under setting [1] turned out to be 2.02 µM and the IC50 under setting [2] was 1.95 µM (inactive).

In general, IC50 refers to the midpoint of a concentration-inhibition curve.
